Experimental data published in PubChem BioAssay (NCI).
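Each compound was tested at five concentrations against cells in 96-well plates for 48 hours. GI50 = concentration required for 50% inhibition of growth. TGI: total growth inhibition.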

Key:
Assay in all cases: NCI-60 cell line screen, 48 h
LOX IMVI melanoma = system: LOX IMVI melanoma
UO-31 renal = system: UO-31 renal
HS 578T breast = system: HS 578T breast
SK-OV-3 ovarian = system: SK-OV-3 ovarian
SK-MEL-5 melanoma = system: SK-MEL-5 melanoma
UACC-257 melanoma = system: UACC-257 melanoma
HOP-62 NSCLC = system: HOP-62 NSCLC
HCT-116 colon = system: HCT-116 colon
SN12C renal = system: SN12C renal
U251 CNS = system: U251 CNS

Structure (SMILES) | TGI (LOX IMVI melanoma) | TGI (UO-31 renal) | TGI (HS 578T breast) | TGI (SK-OV-3 ovarian) | TGI (SK-MEL-5 melanoma) | TGI (UACC-257 melanoma) | TGI (HOP-62 NSCLC) | TGI (HCT-116 colon) | TGI (SN12C renal) | TGI (U251 CNS) | GI50 (LOX IMVI melanoma) | GI50 (UO-31 renal) | GI50 (HS 578T breast) | GI50 (SK-OV-3 ovarian) | GI50 (SK-MEL-5 melanoma) | GI50 (UACC-257 melanoma) | GI50 (HOP-62 NSCLC) | GI50 (HCT-116 colon) | GI50 (SN12C renal) | GI50 (U251 CNS)
O=C(O)C1OC1(c1cccc(Cl)c1)c1ccccc1Cl (stereo not given) | 44 µM | 58.5 µM | 52.4 µM | 66.8 µM | 35.4 µM | 70.6 µM | 61.3 µM | 43.7 µM | 56.3 µM | 25.4 µM | – | – | – | – | – | – | – | – | – | –
COc1cccc(C2=C(c3c(C)n(C)c4ccccc34)C(=O)NC2=O)c1 | > 25 µM | > 25 µM | > 25 µM | > 25 µM | > 25 µM | > 25 µM | > 25 µM | > 25 µM | > 25 µM | > 25 µM | > 25 µM | 14 µM | 12.1 µM | > 25 µM | 9.81 µM | > 25 µM | > 25 µM | 19.7 µM | > 25 µM | > 25 µM
COc1ccc2c(=O)cc(-c3ccncc3)oc2c1OC | > 100 µM | 67.6 µM | 53.7 µM | > 100 µM | 56.8 µM | > 100 µM | > 100 µM | > 100 µM | > 100 µM | > 100 µM | – | – | – | – | – | – | – | – | – | –
O=c1ccn(C2CC(O)C(CO)O2)c(=O)[nH]1 (stereo not given) | > 5000 µM | > 5000 µM | > 5000 µM | > 5000 µM | > 5000 µM | > 5000 µM | > 5000 µM | > 5000 µM | > 5000 µM | > 5000 µM | > 5000 µM | > 5000 µM | > 5000 µM | > 5000 µM | > 5000 µM | > 5000 µM | > 5000 µM | > 5000 µM | > 5000 µM | > 5000 µM
O=CN/C=C/c1cccc(O)c1 | 69.1 µM | > 83.2 µM | > 95.1 µM | > 100 µM | > 75.6 µM | > 89.2 µM | 65.8 µM | 75.6 µM | > 100 µM | > 83 µM | – | – | – | – | – | – | – | – | – | –
CCn1cnc(C[C@H](NC(=O)[C@@H](NC(=O)Nc2cc(C(F)(F)F)cc(C(F)(F)F)c2)C(C)C)C(=O)OC)c1 | 7.43 µM | > 10 µM | 6.11 µM | 4.41 µM | > 10 µM | > 10 µM | 3.65 µM | 3.93 µM | 3.57 µM | 3.96 µM | 2.5 µM | > 10 µM | 2.18 µM | 2.06 µM | 4.31 µM | > 10 µM | 1.87 µM | 1.86 µM | 1.73 µM | 1.98 µM
COc1c(O)cc2oc(-c3ccc(O)cc3)cc(=O)c2c1O | > 100 µM | > 100 µM | 73.8 µM | > 100 µM | 63.7 µM | > 100 µM | > 100 µM | > 100 µM | > 100 µM | > 100 µM | – | – | – | – | – | – | – | – | – | –
Nc1nc(N)c2nc(CNc3ccc(C(=O)NC(CC(=O)O)C(=O)O)cc3)cnc2n1 (stereo not given) | > 100 µM | > 35.9 µM | > 100 µM | > 100 µM | > 100 µM | > 100 µM | > 100 µM | > 100 µM | > 100 µM | > 100 µM | 0.16 µM | 1.18 µM | 59.2 µM | > 53.5 µM | 3.33 µM | > 33.8 µM | 6.4 µM | 0.0773 µM | 0.922 µM | 1.97 µM
